The conditions of data set [1]: cited from earlier work.
The nature of data set [2]: Solubility and aggregation of peptide compared with SEQ ID NO. 1. Type of data set: physicochemical. The settings on record: Met and Cys replaced by norleucine and serine. An excerpt:
Another example of such an amino acid sequence is TKWPVDN/eSPNVS (SEQ ID. NO. 6). In comparison with SEQ ID. NO. 1, replacement of the oxidation-prone amino acids (methionine and cysteine) with their biosteric counterparts (norleucine and serine respectively) in SEQ ID. NO. […] The peptide ligands of the instant invention also include variants or homologues of SEQ ID NO: 6, which may be at least 75% identical to SEQ ID NO: 6 or which may contain conservative substitutions of corresponding amino acid residues.

In data set [3] the test system is Caco-2 intestinal epithelial monolayer. The data set can be described thus: Transport of FITC-labeled peptide across Caco-2 intestinal epithelial monolayer. Type of data set: cell-based, human. The following applies: Caco-2 monolayers, n=3, p<0.05. An excerpt:
FIG. 2. Illustrates that peptide-labeled #12 (SEQ ID NO. 2) and its sequence-scrambled peptide FITC-12C1 were transported across Caco-2 intestinal epithelial monolayer in the presence and absence of chylomicron lipid-forming micelles.
Fluorescently labeled peptides according to SEQ ID NOS. 1 and 3 were synthesized. The peptide according to SEQ ID NO. […] The peptide according to SEQ ID NO. […] Therefore, the peptide according to SEQ ID NO. 2 aggregate may be viewed as a small nanoparticle displaying some peptides according to SEQ ID NO. 2 in correct orientation (i.e., on the surface not buried inside the nanoparticle). Even with this imperfect display, some increase in chylomicron lipid-dependent translocation across Caco-2 monolayers is still noticeable over a scrambled peptide according to SEQ ID NO. 1 (12C1) (FIG. 2). FITC-12 was 4.6-fold more efficiently transported than the sequence-scrambled control (FIG. 2).
For orientation: Passage across Caco-2 layers is used to estimate intestinal permeability.

Square brackets hold non-standard residues; d marks the D form. Ends that are not written are not given here. Peptide text beside a SMILES is read from it. Nle = CCCC[C@H](N)C(=O)O

As a reminder, the LogP is the decadic logarithm of the partition coefficient of the neutral form, usually between octanol and water.

Turning to `Cc1cc(C2CCCCC2)n(O)c(=O)c1` [Ciclopirox], the LogP in data set [1] is 2.2.
Consider `CC(C)CN(C[C@@H](O)[C@H](Cc1ccccc1)NC(=O)O[C@H]1CO[C@H]2OCC[C@H]21)S(=O)(=O)c1ccc(N)cc1` [Darunavir], for which the LogP in data set [1] is on record as 1.8.
With `C[C@@H]1CCO[C@H]2Cn3cc(C(=O)NCc4ccc(F)cc4F)c(=O)c(O)c3C(=O)N12` [Dolutegravir], in data set [1], the LogP is listed as 1.0.
For the compound `CCCC[C@H](NC(=O)[C@H](CC(=O)O)NC(=O)[C@@H](NC(=O)[C@@H]1CCCN1C(=O)[C@H](Cc1c[nH]c2ccccc12)NC(=O)[C@H](CCCCN)NC(=O)[C@@H](N)[C@@H](C)O)C(C)C)C(=O)N[C@@H](CO)C(=O)N1CCC[C@H]1C(=O)N[C@@H](CC(N)=O)C(=O)N[C@H](C(=O)N[C@@H](CO)C(=O)O)C(C)C` [SEQ ID. NO. 6, TKWPVDN/eSPNVS] (H-TKWPVD[Nle]SPNVS-OH; N-terminus and C-terminus assumed), in data set [2], the “solubility in comparison with SEQ ID. NO. 1” value was “better solubility”.
With “FITC-12: fluorescently (FITC) labeled peptide #12 (SEQ ID NO. 2) (QDDVQTWQRQPK; also: FITC label, position not given here)”, in data set [3], the “transport efficiency relative to sequence-scrambled control (12C1)” value worked out at 4.6 fold.

The values above are taken from patent US9566349B2, “Intestinal peptide targeting ligands” (Rutgers, The State University of New Jersey, priority 2010, dated 2017).
